Reference: PMC7881012, “Human ACE2 peptide-mimics block SARS-CoV-2 pulmonary cells infection” (Communications Biology, 2021)

Key:
[1] = Helical content by circular dichroism; format: physicochemical; settings: 60 µM peptide, 50 mM sodium phosphate buffer pH 7.4, 25 °C, DichroWeb CDSSTR deconvolution
From the text: The conformation of synthesized peptides in aqueous solution was investigated by circular dichroism (CD) spectroscopy. […] The deconvolution of the CD spectra using DichroWeb[25] allowed us to estimate the helical population for each peptide, which is reported in Table 1. Overall, an excellent agreement was observed between the Agadir-computed values and the experimental helical population inferred from CD data. […] The introduction of a proline residue in peptide P5 has a strong destabilizing effect on helical conformation (17%) whereas Leu/hTyr substitution only led to a slight decrease of the helical content (P7 versus P6 and P10 versus P8).
Fig. 2 Far-UV CD spectra of synthesized peptides. […] CD measurements are reported as molar ellipticity per residue.
CD spectra were recorded on a Jasco J-815 CD spectropolarimeter equipped with a Peltier temperature controller. Data were obtained at 25 °C over a wavelength range between 185 nm and 270 nm, using a wavelength interval of 0.2 nm and a scan rate of 20 nm min^−1. Peptide samples were prepared at a concentration of 60 µM in 50 mM sodium phosphate buffer, pH 7.4, in a quartz cell of 1 mm path length. CD experiments were processed and plotted with R program. CD spectra were analyzed using DICHROWEB web server and CDSSTR deconvolution algorithm.

[2] = HPLC retention time (LC-MS method B); format: physicochemical; settings: method B: X-Select CSH C18 XP, 0.1% formic acid water/acetonitrile, 5-100% B in 3.2 min, 1.8 mL min^−1, 40 °C; used as indicator of hydrophobicity
[3] = tested on: SARS-CoV-2 clinical isolate SARS-CoV-2/PSL2020 in Vero-E6 cells; settings: for % Inhibition of SARSCoV-2 replication at 10 μM: mean of at least three independent experiments; for % Inhibition, Moyenne / % Inhibition, Q2 (Median): clinical isolate /PSL2020 in Vero-E6 cells, 48 h, 10 µM

Substance	Experimental helical content% [1] [%]	RT, HPLC retention time [2]	% Inhibition of SARSCoV-2 replication at 10 μM [3] [%]	% Inhibition, Moyenne [3] [%]	% Inhibition, Q2 (Median) [3] [%]
Ac-SALEEQLKTFLDKFLHELEDLLYQLAL-NH2 [P4]	70	2,69 min	24	24.0	16.9
H-AHLFSYLTTKEEQDNDAIFLQEFSKES-NH2 [P1scr, reference compound]	8	1,54 min	7	6.7	6.4
H-SALEEQLKTFLDKFLHELEDLLYQLAL-NH2 [P3]	64	2,53 min	4	3.9	3.3
H-SALEEQLKTFLDKFLHELEDLLYQLALAL-NH2 [P6]	80	2,74 min	–	6.5	4.9
H-SALEEQLKTFLDKFLHELEDLLYQLSL-NH2 [P2]	70	1.47 min	16	16.0	20.0
H-SALEEQLKTFLDKFLHELEDPLYQLAL-NH2 [P5]	17	2,16 min	27	26.6	20.4
